Measurements published in patent US10231453B2, “5-substituted imidazole derivatives” (BAYER CROPSCIENCE AKTIENGESELLSCHAFT, priority 2015, dated 2019).

Tested on: Alternaria solani
Assay: In vivo preventive Alternaria test (tomatoes), Example H
Settings: 72 h, 100 ppm of active ingredient, preventive spray, evaluated 3 days after inoculation, read-out: efficacy

Row | Compound | pest or weed control at 100 ppm [%]
1 | C#Cc1cncn1CC(O)(Cc1ccccc1F)C1(Cl)CC1 (stereo not drawn) [Example I-36] | 90 to 100

Tested on: Leptosphaeria nodorum
Assay: In vivo preventive Leptosphaeria nodorum test (wheat), Example N
Settings: Parastagonospora nodorum, 192 h, 500 ppm of active ingredient, preventive spray, evaluated 8 days after inoculation, read-out: efficacy
Excerpt: After the spray coating has been dried, the plants are sprayed with a spore suspension of Leptosphaeria nodorum.

Row | Compound | pest or weed control at 500 ppm [%]
2 | C#Cc1cncn1CC(O)(Cc1ccccc1F)C1(Cl)CC1 (stereo not drawn) [Example I-36] | 80 to 89

Tested on: Pyricularia oryzae
Assay: whole plant or invertebrate
Type: in vivo
Settings: 192 h, read-out: efficacy

Row | Compound | pest or weed control at 500 ppm [%]
3 | C#Cc1cncn1CC(O)(Cc1ccccc1F)C1(Cl)CC1 (stereo not drawn) [Example I-36] | 90 to 100

Tested on: Blumeria graminis fsp. hordei
Assay: In vivo preventive Blumeria test (barley), Example K
Settings: 168 h, 500 ppm of active ingredient, preventive spray, evaluated 7 days after inoculation, read-out: efficacy
Excerpt: After the spray coating has been dried, the plants are dusted with spores of Blumeria graminis fsp. hordei.

Row | Compound | pest or weed control at 500 ppm [%]
4 | C#Cc1cncn1CC(O)(Cc1ccccc1F)C1(Cl)CC1 (stereo not drawn) [Example I-36] | 90 to 100

Tested on: Fusarium nivale (var. majus)
Assay: In vivo preventive Fusarium nivale (var. majus) test (wheat), Example O
Settings: Microdochium nivale, 120 h, 500 ppm of active ingredient, preventive spray, evaluated 5 days after inoculation, read-out: efficacy
Excerpt: After the spray coating has been dried, the plants are slightly injured by using a sandblast and afterwards they are sprayed with a conidia suspension of Fusarium nivale (var. majus).

Row | Compound | pest or weed control at 500 ppm [%]
5 | C#Cc1cncn1CC(O)(Cc1ccccc1F)C1(Cl)CC1 (stereo not drawn) [Example I-36] | 90 to 100

Tested on: Venturia inaequalis
Assay: In vivo preventive Venturia test (apples), Example J
Settings: 240 h, read-out: efficacy
Description: After the spray coating has dried on, the plants are inoculated with an aqueous conidia suspension of the causal agent of apple scab (Venturia inaequalis) and then remain for 1 day in an incubation cabinet at approximately 20° C. and a relative atmospheric humidity of 100%.
The plants are then placed in a greenhouse at approximately 21° C. and a relative atmospheric humidity of approximately 90%.
The test is evaluated 10 days after the inoculation.

Row | Compound | pest or weed control at 100 ppm [%]
6 | C#Cc1cncn1CC(O)(Cc1ccccc1F)C1(Cl)CC1 (stereo not drawn) [Example I-36] | 90 to 100

Tested on: Botrytis cinerea
Assay: In vivo preventive test on Botrytis cinerea (grey mould) on gherkin, Examples B, Q1 and R2
Settings: Botrytis cinerea, 500 ppm of active ingredient, preventive spray, evaluated 4 to 5 days after inoculation, read-out: efficacy

Row | Compound | pest or weed control at 500 ppm [%]
7 | C#Cc1cncn1CC(O)(Cc1ccccc1F)C1(Cl)CC1 (stereo not drawn) [Example I-36] | 90 to 100

Same assay, conditions: Botrytis cinerea, Example R2, rate of application 100 ppm, read-out: Efficacy in %

Row | Compound | pest or weed control at 100 ppm [%]
8 | C#Cc1cncn1CC(O)(Cc1ccccc1F)C1(Cl)CC1 (stereo not drawn) [Example I-36] | 100

Same assay, conditions: Botrytis cinerea, Example R2, rate of application 500 ppm, read-out: Efficacy in %

Row | Compound | pest or weed control at 500 ppm [%]
9 | C#Cc1cncn1CC(O)(Cc1ccccc1F)C1(Cl)CC1 (stereo not drawn) [Example I-36] | 100

Tested on: Septoria tritici
Assay: In vivo preventive test on Septoria tritici (leaf spot on wheat), Examples E, Q3 and R5
Settings: Zymoseptoria tritici, 576 h, 500 ppm of active ingredient; wheat, preventive spray, evaluated 24 days after inoculation; read-out: efficacy

Row | Compound | pest or weed control at 500 ppm [%]
10 | C#Cc1cncn1CC(O)(Cc1ccccc1F)C1(Cl)CC1 (stereo not drawn) [Example I-36] | 90 to 100

Same assay, conditions: Zymoseptoria tritici, 576 h, Example R5, wheat, preventive spray, 100 ppm, evaluated 24 days after inoculation; read-out: Efficacy in %

Row | Compound | pest or weed control at 100 ppm [%]
11 | C#Cc1cncn1CC(O)(Cc1ccccc1F)C1(Cl)CC1 (stereo not drawn) [Example I-36] | 83

Same assay, conditions: Zymoseptoria tritici, 576 h, Example R5, wheat, preventive spray, 500 ppm, evaluated 24 days after inoculation; read-out: Efficacy in %

Row | Compound | pest or weed control at 500 ppm [%]
12 | C#Cc1cncn1CC(O)(Cc1ccccc1F)C1(Cl)CC1 (stereo not drawn) [Example I-36] | 75

Tested on: not listed separately
Assay: Measurement of LogP values by HPLC on reversed phase columns (EEC directive 79/831 Annex V.A8)
Type: physicochemical
Settings: method [a]: LC-UV, acidic range, 0.1% formic acid in water and acetonitrile as eluent; Table 1
Description: Measurement of Log P values was performed as outlined above.

Row | Compound | chromatographic logP
13 | C#Cc1cncn1CC(O)(Cc1ccccc1F)C1(Cl)CC1 (stereo not drawn) [Example I-36] | 1.89

Tested on: Pyrenophora teres
Assay: In vivo preventive test on Pyrenophora teres (net blotch on barley), Examples D, Q2 and R4
Settings: Pyrenophora teres, 336 h, 500 ppm of active ingredient, preventive spray, evaluated 14 days after inoculation, read-out: efficacy

Row | Compound | pest or weed control at 500 ppm [%]
14 | C#Cc1cncn1CC(O)(Cc1ccccc1F)C1(Cl)CC1 (stereo not drawn) [Example I-36] | 90 to 100

Same assay, conditions: Pyrenophora teres, 336 h, Example R4, rate of application 100 ppm, read-out: Efficacy in %

Row | Compound | pest or weed control at 100 ppm [%]
15 | C#Cc1cncn1CC(O)(Cc1ccccc1F)C1(Cl)CC1 (stereo not drawn) [Example I-36] | 57

Same assay, conditions: Pyrenophora teres, 336 h, Example R4, rate of application 500 ppm, read-out: Efficacy in %

Row | Compound | pest or weed control at 500 ppm [%]
16 | C#Cc1cncn1CC(O)(Cc1ccccc1F)C1(Cl)CC1 (stereo not drawn) [Example I-36] | 93

Tested on: Fusarium culmorum
Assay: In vivo preventive Fusarium culmorum test (wheat), Example L
Settings: 120 h, 500 ppm of active ingredient, preventive spray, evaluated 5 days after inoculation, read-out: efficacy
Description: After the spray coating has been dried, the plants are slightly injured by using a sandblast and afterwards they are sprayed with a conidia suspension of Fusarium culmorum.
The test is evaluated 5 days after the inoculation.

Row | Compound | pest or weed control at 500 ppm [%]
17 | C#Cc1cncn1CC(O)(Cc1ccccc1F)C1(Cl)CC1 (stereo not drawn) [Example I-36] | 80 to 89

Tested on: Puccinia recondita
Assay: In vivo preventive test on Puccinia recondita (brown rust on wheat), Examples C and R3
Settings: Puccinia recondita, 264 h; 500 ppm of active ingredient; wheat, preventive spray, evaluated 11 days after inoculation; read-out: efficacy

Row | Compound | pest or weed control at 500 ppm [%]
18 | C#Cc1cncn1CC(O)(Cc1ccccc1F)C1(Cl)CC1 (stereo not drawn) [Example I-36] | 90 to 100

Same assay, conditions: Puccinia recondita, 264 h; Example R3, wheat, preventive spray, 100 ppm, evaluated 11 days after inoculation; read-out: Efficacy in %

Row | Compound | pest or weed control at 100 ppm [%]
19 | C#Cc1cncn1CC(O)(Cc1ccccc1F)C1(Cl)CC1 (stereo not drawn) [Example I-36] | 89

Same assay, conditions: Puccinia recondita, 264 h; Example R3, wheat, preventive spray, 500 ppm, evaluated 11 days after inoculation; read-out: Efficacy in %

Row | Compound | pest or weed control at 500 ppm [%]
20 | C#Cc1cncn1CC(O)(Cc1ccccc1F)C1(Cl)CC1 (stereo not drawn) [Example I-36] | 94

Tested on: Phakopsora pachyrhizi
Assay: In vivo preventive Phakopsora test (soybeans), Example I
Settings: 168 h, 100 ppm of active ingredient, preventive spray, evaluated 7 days after inoculation, read-out: efficacy

Row | Compound | pest or weed control at 100 ppm [%]
21 | C#Cc1cncn1CC(O)(Cc1ccccc1F)C1(Cl)CC1 (stereo not drawn) [Example I-36] | 90 to 100

Tested on: Sphaerotheca fuliginea
Assay: In vivo preventive test on Sphaerotheca fuliginea (powdery mildew on cucurbits), Examples F and R6
Settings: Podosphaera fuliginea, 360 h; 500 ppm of active ingredient; gherkin, preventive spray, evaluated 15 days after inoculation; read-out: efficacy

Row | Compound | pest or weed control at 500 ppm [%]
22 | C#Cc1cncn1CC(O)(Cc1ccccc1F)C1(Cl)CC1 (stereo not drawn) [Example I-36] | 90 to 100

Same assay, conditions: Podosphaera fuliginea, 360 h; Example R6, gherkin, preventive spray, 100 ppm, evaluated 15 days after inoculation; read-out: Efficacy in %

Row | Compound | pest or weed control at 100 ppm [%]
23 | C#Cc1cncn1CC(O)(Cc1ccccc1F)C1(Cl)CC1 (stereo not drawn) [Example I-36] | 100

Same assay, conditions: Podosphaera fuliginea, 360 h; Example R6, gherkin, preventive spray, 500 ppm, evaluated 15 days after inoculation; read-out: Efficacy in %

Row | Compound | pest or weed control at 500 ppm [%]
24 | C#Cc1cncn1CC(O)(Cc1ccccc1F)C1(Cl)CC1 (stereo not drawn) [Example I-36] | 100

Tested on: Uromyces appendiculatus
Assay: In vivo preventive test on Uromyces appendiculatus (bean rust), Examples G and R7
Settings: 264 h, 500 ppm of active ingredient, bean, preventive spray, evaluated 11 days after inoculation, read-out: efficacy

Row | Compound | pest or weed control at 500 ppm [%]
25 | C#Cc1cncn1CC(O)(Cc1ccccc1F)C1(Cl)CC1 (stereo not drawn) [Example I-36] | 90 to 100

Same assay, conditions: 264 h, Example R7, bean, preventive spray, 100 ppm, evaluated 11 days after inoculation, read-out: Efficacy in %

Row | Compound | pest or weed control at 100 ppm [%]
26 | C#Cc1cncn1CC(O)(Cc1ccccc1F)C1(Cl)CC1 (stereo not drawn) [Example I-36] | 100

Same assay, conditions: 264 h, Example R7, bean, preventive spray, 500 ppm, evaluated 11 days after inoculation, read-out: Efficacy in %

Row | Compound | pest or weed control at 500 ppm [%]
27 | C#Cc1cncn1CC(O)(Cc1ccccc1F)C1(Cl)CC1 (stereo not drawn) [Example I-36] | 100
